The results in this text go back to ChEMBL document CHEMBL1201862, “PubChem BioAssay data set” (2004).

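Briefly, cells in 96-well plates were exposed to five compound concentrations for 48 h, and endpoints were estimated by linear interpolation. Here, GI50 denotes the concentration required for 50% inhibition of growth.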 Activity calls are given as the source filed them. No stated cut-off is given here; in the data, active = GI50 up to about 1.1 µM and inactive = higher.

Common to all, as to test: NCI anticancer screen, dose series, 48 h
Assay [1] relates to Malme-3M.
In assay [2] the test system is BT-549.
For assay [3], the system named is MDA-N.
Assay [4] relates to HCT-15.
Assay [5] concerns HL-60.
The test system of assay [6] is SR.
Assay [7] concerns SK-MEL-5.
Assay [8] deals with EKVX.
In assay [9] the test system is HCC 2998.
In assay [10] the test system is SW-620.
For assay [11], the system named is NCI-H23.
The subject of assay [12] is SK-MEL-2.
The subject of assay [13] is NCI/ADR-RES.
Assay [14] relates to NCI-H522.
For assay [15], the system named is RXF 393.
Assay [16] deals with U-251.
The test system of assay [17] is OVCAR-3.
Assay [18] has as its system TK-10.
In assay [19] the test system is T47D.

`COc1cc(OC)c2c(=O)c3cccc(C)c3n(C)c2c1`: the GI50 is 98.2 µM (inactive) in [1]; > 100 µM (inactive) in assay [2]; 16.6 µM (inactive) in assay [3]; above 100 µM in assay [4]; 30.5 µM (inactive) in [5]; 37 µM (inactive) in [6]. For the same molecule, the GI50 in [7] was 22.4 µM (inactive); in assay [8] it was > 100 µM (inactive); in assay [9], > 100 µM (inactive); in assay [10], > 100 µM (inactive); in assay [11], > 100 µM (inactive); in assay [12], 76.7 µM (inactive). For the same molecule, the GI50 in [13] is 64.1 µM (inactive); in [14], > 100 µM (inactive); in assay [15], > 100 µM (inactive); in assay [16], 84.3 µM (inactive); in assay [17] it was 74.8 µM (inactive); in [18] it was > 100 µM (inactive).
Consider `CCSC1=N/C(=C\c2ccccc2O)C(Nc2ccc(C)cc2)=N1`, for which the GI50 in assay [1] was 33.3 µM (inactive); in assay [2], > 100 µM (inactive); in assay [4] it was 59.7 µM; in assay [5], 39 µM (inactive); in [7], 30.2 µM (inactive); in [8] it was > 100 µM (inactive). Also, the GI50 is 50.6 µM (inactive) in assay [10]; 56 µM (inactive) in assay [11]; 19.6 µM (inactive) in [12]; 50 µM (inactive) in assay [19]; 56 µM (inactive) in assay [13]; 20.4 µM (inactive) in assay [14]. Further, the GI50 in assay [15] was 75.2 µM (inactive); in [16] it was 41.9 µM (inactive); in assay [17], 22.4 µM (inactive); in assay [18], > 100 µM (inactive).
On to `CC(=O)Nc1ccc(S(=O)(=O)Nc2nc(-c3ccc(Cl)cc3)cc(N3N=C(c4ccc(Br)cc4)CC3c3ccccc3)n2)cc1` (configuration not stated), for which the GI50 is 16.1 µM (inactive) in [1]; 17.8 µM (inactive) in assay [2]; 5.51 µM (inactive) in assay [3]; 15.7 µM in assay [4]; 14.2 µM (inactive) in assay [5]; 16.2 µM (inactive) in assay [6]. Besides, the GI50 in assay [8] was 13.6 µM (inactive); in [10], 20.4 µM (inactive); in assay [11], 16.6 µM (inactive); in assay [12] it was 14.7 µM (inactive); in assay [13], 17.1 µM (inactive); in assay [14] it was 14.8 µM (inactive). Moreover, the GI50 is 13.8 µM (inactive) in assay [15], 16.8 µM (inactive) in assay [16], 2.06 µM (inactive) in assay [17] and 14 µM (inactive) in assay [18].
`Cc1ccc2c(c1)CC1(C2=O)[C@H](c2ccccc2)C2C(=O)c3ccc(C)cc3C2[C@H]1c1ccccc1` (some centres not stated): the GI50 in [1] was > 100 µM (inactive); in assay [2], > 100 µM (inactive); in [3], > 100 µM (inactive); in assay [4], above 100 µM; in assay [5], 43.1 µM (inactive); in assay [6] it was 36.9 µM (inactive). Further, the GI50 in assay [8] was > 100 µM (inactive); in assay [9], 43 µM (inactive); in assay [10], > 100 µM (inactive); in assay [11] it was > 100 µM (inactive); in assay [19] it was > 100 µM (inactive); in assay [14], > 100 µM (inactive). For the same molecule, the GI50 in assay [15], in assay [16], in assay [17] and in assay [18] was > 100 µM (inactive) in each case.
Turning to `COC(=O)/C=C(\C)CC(O)/C=C(\C)CCC=C(C)C` (configuration not stated), the GI50 in [1] was 39.6 µM (inactive); in assay [2], 31.2 µM (inactive); in assay [3] it was 35.5 µM (inactive); in [4], 58.6 µM; in assay [5], 17.4 µM (inactive); in [6] it was 23 µM (inactive). The GI50 is 19.5 µM (inactive) in assay [7]; 46.1 µM (inactive) in assay [8]; 27.9 µM (inactive) in assay [9]; 60.8 µM (inactive) in assay [10]; 26.9 µM (inactive) in assay [11]; 19.1 µM (inactive) in assay [12]. Moreover, the GI50 in assay [13] is 16.2 µM (inactive); in assay [15], 31.7 µM (inactive); in [16], 42.7 µM (inactive); in [17] it was 22.7 µM (inactive); in assay [18], 55.8 µM (inactive).
For the molecule `CC1=C(C(=O)c2ccccc2)C23C(=O)N(c4ccccc4)C(=O)C2=C(O)C=CC3(O)N1` (configuration not stated), the GI50 in assay [1] was 25.2 µM (inactive); in assay [2], 20.4 µM (inactive); in [4] it was 24.6 µM; in assay [5], 16.6 µM (inactive); in [6] it was 15.4 µM (inactive); in assay [7], 17.6 µM (inactive). Moreover, the GI50 in [8] was 76.6 µM (inactive); in assay [9], 26.7 µM (inactive); in [10], 25.9 µM (inactive); in assay [11], 44.2 µM (inactive); in assay [12] it was 21 µM (inactive); in assay [19], 37.2 µM (inactive). For the same molecule, the GI50 in assay [13] was 51.4 µM (inactive); in assay [14] it was 12.7 µM (inactive); in assay [15], 20.2 µM (inactive); in [16] it was 28.1 µM (inactive); in assay [17] it was 21.4 µM (inactive); in assay [18], 67.1 µM (inactive).
For `CC(C)(C)OC(=O)NCC(C#N)CNC(=O)OC(C)(C)C`, the GI50 in [1] is > 100 µM (inactive); in [2], > 100 µM (inactive); in [4] it was above 100 µM; in [5], > 100 µM (inactive); in assay [6], > 100 µM (inactive); in assay [7] it was > 100 µM (inactive). Moreover, the GI50 in assay [8], in assay [9], in [10], in assay [11], in assay [19] and in [13] was > 100 µM (inactive) each time. Also, the GI50 in [14], in [15], in [16], in assay [17] and in assay [18] was > 100 µM (inactive) each time.
On to `COCn1cnc2c(=O)n(-c3ccc(OC)cc3)c(=S)n(-c3ccc(OC)cc3)c21`, for which the GI50 in assay [2] was > 100 µM (inactive); in [4], above 100 µM; in assay [5], > 100 µM (inactive); in assay [6] it was > 100 µM (inactive); in assay [7], > 100 µM (inactive); in assay [8], > 100 µM (inactive). The GI50 in [9], in assay [10], in assay [11], in assay [12], in assay [19] and in assay [13] was > 100 µM (inactive) each time. Further, the GI50 in assay [14], in assay [15], in assay [16], in assay [17] and in assay [18] was > 100 µM (inactive) throughout.
Turning to `CCCCn1c(O)nc2c(N)ncnc21`, the GI50 was > 100 µM (inactive) in assay [1]; > 100 µM (inactive) in [2]; > 100 µM (inactive) in [3]; above 100 µM in assay [4]; > 100 µM (inactive) in assay [5]; > 100 µM (inactive) in [7]. Besides, the GI50 in assay [8] was 92.9 µM (inactive); in assay [9], > 100 µM (inactive); in [10], > 100 µM (inactive); in assay [11] it was > 100 µM (inactive); in assay [12] it was > 100 µM (inactive); in assay [13] it was > 100 µM (inactive). Further, the GI50 in [14], in [15], in [16], in [17] and in assay [18] was > 100 µM (inactive) in each case.
